The text below walks through data of paper PMC11638965, “Leveraging Dual-Ligase Recruitment to Enhance Protein Degradation via a Heterotrivalent Proteolysis Targeting Chimera” (Journal of the American Chemical Society, 2024).

Experiment [1] relates to RKO CRBN/VHL dKO cells. Nature of the experiment: Cell viability assay (CellTiter-Glo). In kind it is cell-based, human. Conditions: read-out: EC50 RKO CRBN/VHL dKO. As to the method:
(§1) RKO WT, VHL KO, CRBN KO and CRBN/VHL dKO cells were cultured in Dulbecco’s modified Eagle’s medium supplemented with 10% FCS and 1% penicillin–streptomycin. RKO CRBN KO and VHL KO were generated previously.[45] RKO CRBN/VHL dKO cells were generated by transiently expressing pSpCas9(BB)-2A-GFP (PX458) (Addgene 48138) loaded with a short guide RNA (sgRNA) targeting VHL (Fwd: […], Rev: […]) in RKO CRBN KO cells. Clones were single cell seeded and checked for VHL and CRBN double deletion via Western blot or PCR on genomic DNA (gDNA).
(§2) Cells were seeded in 96-well plates at a cell density of 3750 cells per well and treated for 3 days with DMSO or drug at ten √10 serial diluted concentrations. Starting concentration for all drugs was 10 μM, and each treatment was performed in biological triplicates. Cell viability was assessed using the CellTiter-Glo assay (CellTiter-Glo Luminescent Cell Viability Assay, Promega G7573) according to manufacturer instructions. Luminescence signal was measured on a Multilabel Plate Reader Platform Victor X3 model 2030 (PerkinElmer). Survival curves and EC50 values were determined using GraphPad Prism v.10.0.3 by fitting a nonlinear regression to the log10-transformed drug concentration and the relative viability after normalization of each data point to the mean luminescence of the lowest drug concentration.

Experiment [2] deals with CRBN (Homo sapiens, UniProt Q96SW2). Nature of the experiment: NanoBRET lytic and live cell target engagement assay. It counts as binding. On the set-up: host or cells: HEK293, transient. The settings on record: for IC50: HEK293 cells with NanoLuc-CRBN, CRBN fluorescent tracer. Here is the method: CRBN (N2910, Promega) and VHL (N2930, Promega) NanoBRET target engagement assays were performed according to manufacturer’s instructions. Transfection complexes were prepared using 1 mL Opti-MEM, 30 μL FuGENE HD, and either 9 μg/mL DDB1 Expression Vector and 1 μg/mL NanoLuc-CRBN fusion vector, or 9 μg/mL Transfection Carrier DNA and 1 μg/mL VHL-NanoLuc fusion vector. Transfection complexes were allowed to form for 20 min at room temperature, then were added to 20 mL of HEK293 cells at density of 200,000 cells/mL. Transfected HEK293 cells were plated in a T75 flask and allowed to express protein overnight. The next day, 85 μL of transfected cells (at 200,000 cells/mL) were replated in white nonbinding 96-well plates for live and lytic target engagement measurements. For live mode, a 100x solution of NanoBRET tracer was prepared using 100% DMSO (50 μM for CRBN live-cell, 100 μM for VHL live-cell). 100x tracer was used to prepare 20× tracer using tracer dilution buffer. PROTACs or test compounds were prepared at 10x final concentrations in Opti-MEM. Five μL of the prepared tracer was then dispensed to each well and the plate was mixed on an orbital shaker at 300 rpm for 15 s. Ten μL of each 10x PROTAC dilution was added to the cells and the plate was mixed again before being incubated at a 37 °C, 5% CO2 incubator for 2 or 5 h (as indicated in each figure). After incubation, a 50 μL of a 3X substrate solution (containing 30 μL NanoBRET Nano-Glo Substrate, 10 μL Extracellular NanoLuc inhibitor, and 4960 μL of Opti-MEM) was added to each well. Plates were incubated for 2–3 min at room temperature, then donor emission (450 nm) and acceptor emission (at 610 nm) values were read using a GloMax Discover. For lytic mode, the following changes were made. […] Plates were incubated in darkness for 5 min after digitonin addition to allow for permeabilization. 50 μL of 3X substrate (30 μL NanoBRET Nano-Glo substrate and 4970 μL Opti-MEM) was added to each well and plates were incubated for 1 min at room temperature before being read on a GloMax Discover as above.

Experiment [3] has as its system RKO VHL KO cells. Nature of the experiment: Cell viability assay (CellTiter-Glo). It counts as cell-based, human. As to the method:
as §1, §2
On the technique in general: Cellular ATP, detected with luciferase, serves as a proxy for viable cell number.

Experiment [4] concerns RKO CRBN KO cells. Nature of the experiment: Cell viability assay (CellTiter-Glo). It counts as cell-based, human. Conditions: 500 pM to 10 μM, 3 days (Figure 10, Table S6).
The test system of experiment [5] is RKO CRBN KO cells. Nature of the experiment: Cell viability assay (CellTiter-Glo). In kind it is cell-based, human. Conditions: 316 pM to 10 μM, 3 days, n = 3 (Figures 5 and 8C, Table S5). As to the method:
as §1, §2

Where [6] appears, read: Homo sapiens, 72 h, 316 pM to 10 μM, 3 days, n = 3 (Figures 5 and 8C, Table S5).
Setting [7] is: live cells 2 h, read-out: IC50 (Live Cell), Target: CRBN.
Setting [8] is: lysed with digitonin, read-out: IC50 (Lytic Cell), Target: CRBN.
Where [9] appears, read: Homo sapiens, 72 h, 500 pM to 10 μM, 3 days (Figure 10, Table S6).

SMILES strings stand for the structures. “Also recorded” adds a separate entry of the source. Where two headings read alike, the source gives them in different places.

CRBN, sequence (Q96SW2 whole entry, the tested form may be a part): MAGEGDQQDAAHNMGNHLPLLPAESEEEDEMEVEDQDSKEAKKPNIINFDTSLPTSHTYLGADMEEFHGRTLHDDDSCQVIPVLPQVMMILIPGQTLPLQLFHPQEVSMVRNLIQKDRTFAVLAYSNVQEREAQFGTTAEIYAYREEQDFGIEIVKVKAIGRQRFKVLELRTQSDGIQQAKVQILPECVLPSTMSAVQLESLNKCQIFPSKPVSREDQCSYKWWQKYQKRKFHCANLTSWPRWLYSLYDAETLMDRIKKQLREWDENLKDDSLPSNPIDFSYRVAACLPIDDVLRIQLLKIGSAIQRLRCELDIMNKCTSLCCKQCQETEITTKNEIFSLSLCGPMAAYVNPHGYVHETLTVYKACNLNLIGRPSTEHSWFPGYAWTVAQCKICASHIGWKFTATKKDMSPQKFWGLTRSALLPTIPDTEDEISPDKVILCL
CRBN, sequence (Q16531 whole entry partner, the tested form may be a part): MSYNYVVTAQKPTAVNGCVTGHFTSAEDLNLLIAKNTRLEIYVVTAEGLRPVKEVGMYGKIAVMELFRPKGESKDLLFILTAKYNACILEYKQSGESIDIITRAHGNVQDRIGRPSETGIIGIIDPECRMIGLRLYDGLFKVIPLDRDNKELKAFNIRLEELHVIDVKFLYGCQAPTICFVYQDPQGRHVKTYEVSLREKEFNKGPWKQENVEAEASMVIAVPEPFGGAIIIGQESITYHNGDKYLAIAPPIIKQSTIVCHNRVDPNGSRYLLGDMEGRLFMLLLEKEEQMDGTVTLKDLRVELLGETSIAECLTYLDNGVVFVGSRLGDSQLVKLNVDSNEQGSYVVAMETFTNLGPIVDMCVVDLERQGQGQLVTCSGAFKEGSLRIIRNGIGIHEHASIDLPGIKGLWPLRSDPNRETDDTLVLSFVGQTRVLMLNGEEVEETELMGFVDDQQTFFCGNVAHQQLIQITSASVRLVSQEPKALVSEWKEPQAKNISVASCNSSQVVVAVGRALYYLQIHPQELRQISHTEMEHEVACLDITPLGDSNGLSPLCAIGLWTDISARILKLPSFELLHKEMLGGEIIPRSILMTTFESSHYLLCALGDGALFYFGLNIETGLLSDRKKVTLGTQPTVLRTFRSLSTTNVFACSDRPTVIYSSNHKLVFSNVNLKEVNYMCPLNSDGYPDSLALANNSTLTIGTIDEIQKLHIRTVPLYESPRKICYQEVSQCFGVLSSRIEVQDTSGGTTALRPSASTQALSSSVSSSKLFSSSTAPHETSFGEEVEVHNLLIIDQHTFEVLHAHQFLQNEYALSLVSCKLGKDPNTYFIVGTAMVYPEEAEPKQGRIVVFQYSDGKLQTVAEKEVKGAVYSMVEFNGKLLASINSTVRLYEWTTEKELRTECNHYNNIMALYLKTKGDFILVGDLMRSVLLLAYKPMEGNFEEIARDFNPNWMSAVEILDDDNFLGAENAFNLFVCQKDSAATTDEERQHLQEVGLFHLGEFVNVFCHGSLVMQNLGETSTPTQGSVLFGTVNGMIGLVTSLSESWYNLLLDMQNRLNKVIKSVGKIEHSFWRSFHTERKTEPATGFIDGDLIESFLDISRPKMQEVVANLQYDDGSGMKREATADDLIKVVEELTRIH

As to `Cc1ncsc1-c1ccc(CNC(=O)[C@@H]2C[C@@H](O)CN2C(=O)[C@@H](NC(=O)COCC(C)(COCCOCCOCCNc2cc3c(cc2F)C(=O)N(C2CCC(=O)NC2=O)C3=O)COCCOCCOCCOC(=O)C[C@@H]2N=C(c3ccc(Cl)cc3)c3c(sc(C)c3C)-n3c(C)nnc32)C(C)(C)C)cc1` (mixture of isomers) [AB3063 (26), (17S)-11-((2-(2-(2-((2-(2,6-dioxopiperidin-3-yl)-6-fluoro-1,3-dioxoisoindolin-5-yl)amino)ethoxy)ethoxy)ethoxy)methyl)-17-((2S,4R)-4-hydroxy-2-((4-(4-methylthiazol-5-yl)benzyl)carbamoyl)pyrrolidine-1-carbonyl)-11,18,18-trimethyl-15-oxo-3,6,9,13-tetraoxa-16-azanonadecyl 2-((S)-4-(4-chlorophenyl)-2,3,9-trimethyl-6H-thieno[3,2-f][1,2,4]triazolo[4,3-a][1,4]diazepin-6-yl)acetate], in experiment [1] (setting [6]), the EC50 amounted to 2240 nM. In addition, the IC50 was determined as 1560 nM in experiment [2] (setting [7]) and 412 nM in experiment [2] (setting [8]).

Regarding `Cc1ncsc1-c1ccc([C@H](C)NC(=O)[C@@H]2C[C@H](O)CN2C(=O)[C@@H](NC(=O)COCC(C)(COCCOCCOCCNc2cc3c(cc2F)C(=O)N(C2CCC(=O)N(C)C2=O)C3=O)COCCOCCOCCOC(=O)C[C@@H]2N=C(c3ccc(Cl)cc3)c3c(sc(C)c3C)-n3c(C)nnc32)C(C)(C)C)cc1` (mixture of isomers) [neg-cis-AB3067 (95), (17S)-11-((2-(2-(2-((6-fluoro-2-(1-methyl-2,6-dioxopiperidin-3-yl)-1,3-dioxoisoindolin-5-yl)amino)ethoxy)ethoxy)ethoxy)methyl)-17-((2S,4S)-4-hydroxy-2-(((S)-1-(4-(4-methylthiazol-5-yl)phenyl)ethyl)carbamoyl)pyrrolidine-1-carbonyl)-11,18,18-trimethyl-15-oxo-3,6,9,13-tetraoxa-16-azanonadecyl 2-((S)-4-(4-chlorophenyl)-2,3,9-trimethyl-6H-thieno[3,2-f][1,2,4]triazolo[4,3-a][1,4]diazepin-6-yl)acetate], the EC50 in experiment [1] (setting [9]) is 657 nM; in experiment [3] (setting [9]), 522 nM; in experiment [4] (Homo sapiens, 72 h) it was 586 nM.

Take `Cc1ncsc1-c1ccc([C@H](C)NC(=O)[C@@H]2C[C@H](O)CN2C(=O)[C@@H](NC(=O)COCC(C)(COCCOCCOCCNc2cc3c(cc2F)C(=O)N(C2CCC(=O)NC2=O)C3=O)COCCOCCOCCOC(=O)C[C@@H]2N=C(c3ccc(Cl)cc3)c3c(sc(C)c3C)-n3c(C)nnc32)C(C)(C)C)cc1` (mixture of isomers) [cis-AB3067 (94), (17S)-11-((2-(2-(2-((2-(2,6-dioxopiperidin-3-yl)-6-fluoro-1,3-dioxoisoindolin-5-yl)amino)ethoxy)ethoxy)ethoxy)methyl)-17-((2S,4S)-4-hydroxy-2-(((S)-1-(4-(4-methylthiazol-5-yl)phenyl)ethyl)carbamoyl)pyrrolidine-1-carbonyl)-11,18,18-trimethyl-15-oxo-3,6,9,13-tetraoxa-16-azanonadecyl 2-((S)-4-(4-chlorophenyl)-2,3,9-trimethyl-6H-thieno[3,2-f][1,2,4]triazolo[4,3-a][1,4]diazepin-6-yl)acetate]: the EC50 in experiment [1] (500 pM to 10 μM, 3 days (Figure 10, Table S6), listed as 94) was approximately 820 nM; in experiment [1] (setting [9]), 804 nM; in experiment [3] (setting [9]), 48 nM; in experiment [4] (listed as 94), approximately 820 nM; in experiment [4] (Homo sapiens, 72 h), 832 nM. In experiment [2] (lytic, live cell 2 h and 5 h (Figure S6), listed as 94), the “CRBN engagement compared to 27 (in words)” value was “slight improvement in binding to CRBN after 2 h; also recorded: even greater binding to CRBN after 5 h compared to 27”.

Take `Cc1ncsc1-c1ccc([C@H](C)NC(=O)[C@@H]2C[C@@H](O)CN2C(=O)[C@@H](NC(=O)COCC(C)(COCCOCCOCCNc2cc3c(cc2F)C(=O)N(C2CCC(=O)NC2=O)C3=O)COCCOCCOCCOC(=O)C[C@@H]2N=C(c3ccc(Cl)cc3)c3c(sc(C)c3C)-n3c(C)nnc32)C(C)(C)C)cc1` (mixture of isomers) [AB3067 (27), (17S)-11-((2-(2-(2-((2-(2,6-dioxopiperidin-3-yl)-6-fluoro-1,3-dioxoisoindolin-5-yl)amino)ethoxy)ethoxy)ethoxy)methyl)-17-((2S,4R)-4-hydroxy-2-(((S)-1-(4-(4-methylthiazol-5-yl)phenyl)ethyl)carbamoyl)pyrrolidine-1-carbonyl)-11,18,18-trimethyl-15-oxo-3,6,9,13-tetraoxa-16-azanonadecyl 2-((S)-4-(4-chlorophenyl)-2,3,9-trimethyl-6H-thieno[3,2-f][1,2,4]triazolo[4,3-a][1,4]diazepin-6-yl)acetate]: the EC50 in experiment [5] (listed as 27) came to 133 nM; in experiment [5] (Homo sapiens, 72 h) it was 180 nM; in experiment [1] (setting [6]) it was 988 nM; in experiment [1] (setting [9]), 818 nM; in experiment [3] (316 pM to 10 μM, 3 days, n = 3 (Figures 5 and 8C, Table S5), listed as 27) it was 180 nM; in experiment [3] (setting [6]) it was 133 nM. The EC50 in experiment [3] (setting [9]) was 110 nM; in experiment [4] (Homo sapiens, 72 h) it was 82 nM. In experiment [2] (27 vs 26), the “fold stronger engagement of CRBN over 26, live cell format” value is given as 2.5 fold. In addition, the figures for the IC50 in experiment [2] (setting [7]) and in experiment [2] (setting [8]) were 624 nM and 190 nM, respectively.

With `Cc1ncsc1-c1ccc(CNC(=O)[C@@H]2C[C@@H](O)CN2C(=O)[C@@H](NC(=O)COCC(COCCOCCOCCNc2cc3c(cc2F)C(=O)N(C2CCC(=O)NC2=O)C3=O)(COCCOCCOCCOC(=O)C[C@@H]2N=C(c3ccc(Cl)cc3)c3c(sc(C)c3C)-n3c(C)nnc32)COCCOCCOCCOC(=O)C[C@@H]2N=C(c3ccc(Cl)cc3)c3c(sc(C)c3C)-n3c(C)nnc32)C(C)(C)C)cc1` (mixture of isomers) [AB3124 (86)], the EC50 was found to be 62 nM in experiment [5] (listed as 86); 34 nM in experiment [5] (Homo sapiens, 72 h); 16 nM in experiment [1] (setting [6]); 34 nM in experiment [3] (316 pM to 10 μM, 3 days, n = 3 (Figures 5 and 8C, Table S5), listed as 86); 62 nM in experiment [3] (setting [6]).

By IC50 is commonly meant the midpoint of a concentration-inhibition curve.
